Test results: ChEMBL document CHEMBL3244141, “Synthesis and analgesic activity of some long-acting piperidinospiro derivatives of methadone” (1978)

What was measured:
Rattus norvegicus [1] = organism: Rattus norvegicus; experiment: animal or person; type: functional; conditions: Sprague-Dawley, Tail, po, 24 h
Rattus norvegicus [2] = experiment: Analgesic activity in po dosed Sprague-Dawley rat assessed as inhibition of warm-water tail withdrawal reflex by measuring dose required to produce withdrawal latency >4 seconds measured every hour of 24 hrs relative to methadone; type: functional

Compound	ED50 (Rattus norvegicus [1]) [mg/kg]	Ratio (Rattus norvegicus [2])
CCC(=O)C(CCN1CCC2(CCCc3ccccc32)CC1)(c1ccccc1)c1ccccc1.O=C(O)C(=O)O	0.07	212
CCC(OC(C)=O)C(CCN1CCC2(CCCc3ccccc32)CC1)(c1ccccc1)c1ccccc1.O=S(=O)(O)O (stereo unspecified)	0.14	106
CCC(O)C(CCN1CCC2(CCCc3ccccc32)CC1)(c1ccccc1)c1ccccc1 (racemic)	0.14	106
